Source: ChEMBL document CHEMBL1128802, “Hydroxy-anthraquinones as antimalarial agents” (Bioorg Med Chem Lett, 1995)

What was measured:
[1] = tested on: Plasmodium falciparum; test: In vitro inhibitory activity against Plasmodium falciparum D6; type: functional, organism-based
[2] = tested on: CFU-GM; test: In vitro toxicity against human bone marrow stem cells (CFU-GM) in the absence (control); activity expressed as average colony count; type: functional, Bone element
[3] = tested on: CFU-GM; test: In vitro toxicity against human bone marrow stem cells(CFU-GM) at a dose of 0.1 uM; activity expressed as average colony count; type: functional
[4] = tested on: CFU-GM; test: In vitro toxicity against human bone marrow stem cells(CFU-GM) at a dose of 1.0 uM; activity expressed as average colony count; type: functional
[5] = tested on: CFU-GM; test: In vitro toxicity against human bone marrow stem cells(CFU-GM) at a dose of 10.0 uM; activity expressed as average colony count; type: functional
[6] = tested on: CFU-GM; test: In vitro toxicity against human bone marrow stem cells(CFU-GM) at a dose of 100.0 uM; activity expressed as average colony count; type: functional
[7] = tested on: CFU-GM; test: In vitro toxicity against human bone marrow stem cells(CFU-GM) at a dose of 5.0 uM; activity expressed as average colony count; type: functional
[8] = tested on: CFU-GM; test: In vitro toxicity against human bone marrow stem cells(CFU-GM) in the absence (control); activity expressed as average colony count; type: functional

| IC50 [1] | Compound | other results |
| --- | --- | --- |
| ≥ 5 µM | COc1cc2c(cc1OC)C(=O)c1cc(OC)c(OC)cc1C2=O |  |
| 0.8 µM | O=C1c2c(O)c(O)c(O)c(O)c2C(=O)c2c(O)c(O)c(O)c(O)c21 |  |
| ≥ 5 µM | COc1cc2c(c(OC)c1OC)C(=O)c1cc(OC)c(OC)c(OC)c1C2=O |  |
| ≥ 5 µM | COc1c(OC)c(OC)c2c(c1OC)C(=O)c1c(OC)c(OC)c(OC)c(OC)c1C2=O |  |
| 5 µM | O=C1c2c(O)c(O)c(O)c(Br)c2C(=O)c2c(O)c(O)c(O)c(Br)c21 |  |
| ≥ 5 µM | COc1c(Br)c2c(c(OC)c1OC)C(=O)c1c(Br)c(OC)c(OC)c(OC)c1C2=O |  |
| 0.3 µM | O=C1c2cc(O)c(O)cc2C(=O)c2cc(O)c(O)cc21 |  |
| > 1 µM | O=C1c2ccc(O)cc2C(=O)c2ccc(O)cc21 [ANTHRAFLAVICACID] |  |
| > 1 µM | O=C1c2cccc(O)c2C(=O)c2cccc(O)c21 [ANTHRARUFIN] |  |
|  | CCN(CC)CCCC(C)Nc1ccnc2cc(Cl)ccc12 (centres undefined) [CHLOROQUINE] | Average colony count [3]: 56; Average colony count [4]: 54; Average colony count [5]: 48; Average colony count [6]: 5; Average colony count [7]: 54; Average colony count [8]: 56 |
| > 1 µM | O=C1c2ccccc2C(=O)c2c(O)c(O)cc(O)c21 [PURPURIN] |  |

| Compound | IC50 [1] | other results |
| --- | --- | --- |
| O=C1c2cc(O)c(O)c(O)c2C(=O)c2cc(O)c(O)c(O)c21 | 0.035 µM | Average colony count [2]: 56; Average colony count [3]: 61; Average colony count [4]: 57; Average colony count [5]: 36; Average colony count [6]: 5; Average colony count [7]: 47 |
| O=C1c2ccccc2C(=O)c2ccccc21 [ANTHRAQUINONE] | 5 µM |  |
